Reference: ChEMBL document CHEMBL1155535, “Synthesis and biological evaluation of tricyclic anilinopyrimidines as IKKbeta inhibitors” (Bioorg Med Chem Lett, 2010)
In brackets after ≈: the same amount, converted by molar mass.

Key:
[1] = target: T1, Inhibitor of nuclear factor kappa-B kinase subunit beta (Homo sapiens, UniProt O14920); assay: Inhibition of FLAG-tagged IKK-beta after 30 mins
T1 sequence (O14920 whole entry): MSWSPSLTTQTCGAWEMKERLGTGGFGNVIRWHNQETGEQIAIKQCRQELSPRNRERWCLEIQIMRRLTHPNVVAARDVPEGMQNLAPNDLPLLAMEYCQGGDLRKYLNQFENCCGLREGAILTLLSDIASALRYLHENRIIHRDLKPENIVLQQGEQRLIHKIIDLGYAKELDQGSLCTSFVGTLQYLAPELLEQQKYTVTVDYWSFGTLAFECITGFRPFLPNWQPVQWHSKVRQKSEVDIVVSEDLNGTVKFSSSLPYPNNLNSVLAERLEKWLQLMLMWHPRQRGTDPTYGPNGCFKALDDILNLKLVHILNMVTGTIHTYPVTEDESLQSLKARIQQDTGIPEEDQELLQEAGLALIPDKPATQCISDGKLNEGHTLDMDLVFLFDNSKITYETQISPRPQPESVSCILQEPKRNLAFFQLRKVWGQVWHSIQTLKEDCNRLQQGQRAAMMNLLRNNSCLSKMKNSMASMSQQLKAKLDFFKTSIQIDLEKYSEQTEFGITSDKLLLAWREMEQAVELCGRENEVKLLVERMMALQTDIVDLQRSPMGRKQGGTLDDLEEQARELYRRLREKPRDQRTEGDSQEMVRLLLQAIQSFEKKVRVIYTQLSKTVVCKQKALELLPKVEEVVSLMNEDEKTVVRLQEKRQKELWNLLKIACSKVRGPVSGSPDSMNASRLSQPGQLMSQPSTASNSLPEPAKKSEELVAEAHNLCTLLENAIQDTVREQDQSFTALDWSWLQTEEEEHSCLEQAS

[2] = Membrane permeability by PAMPA assay
[3] = system: LoVo; assay: Cytotoxicity against human LoVo cells assessed as growth inhibition; assay type: functional, cell-based
[4] = Aqueous solubility in at pH 7.4
[5] = target: T1, Inhibitor of nuclear factor kappa-B kinase subunit beta; assay: Inhibition of IKK-beta expressed in human HeLa cells transfected with pNFkappaB-luciferase assessed inhibition of TNF-alpha-induced NF-kappaB expression by luciferase reporter gene assay; assay type: cell-based
[6] = Apparent permeability from apical to basolateral side in human Caco-2 cells
[7] = Apparent permeability from basolateral to apical side in human Caco-2 cells

SMILES	IC50 [1] [nM]	Papp [2] [×10⁻⁶ cm/s]	IC50 [3] [nM]	solubility [4] [µg/mL]	IC50 [5] [nM]	Papp A→B [6] [×10⁻⁶ cm/s]	Papp B→A [7] [×10⁻⁶ cm/s]
COc1ccc(-c2ccnc(Nc3ccc(S(N)(=O)=O)cc3)n2)cc1	40	< 0.01	2550	2.3 (≈ 6.45 µM)	640		
COc1ccc2c(c1)CCc1cnc(Nc3ccc(S(N)(=O)=O)cc3)nc1-2	550	1.8	750	< 1	420		
CC(C)(C)CC(=O)Nc1ccc(-c2ccnc(Nc3ccc(S(N)(=O)=O)cc3)n2)cc1	10	0.6	790	< 1	2460		
CC(C)=CC(=O)Nc1ccc2c(c1)CCc1cnc(Nc3ccc(S(N)(=O)=O)cc3)nc1-2	1590		560		8250		
NS(=O)(=O)c1ccc(Nc2ncc3c(n2)-c2ccc(NC(=O)C4CCCC4)cc2CC3)cc1	2200		830		1570		
CC(C)C(=O)Nc1ccc2c(c1)CCc1cnc(Nc3ccc(S(N)(=O)=O)cc3)nc1-2	1110		660		1460		
COC(=O)CC(=O)Nc1ccc2c(c1)CCc1cnc(Nc3ccc(S(N)(=O)=O)cc3)nc1-2	280		620				
COc1ccc(CC(=O)Nc2ccc3c(c2)CCc2cnc(Nc4ccc(S(N)(=O)=O)cc4)nc2-3)cc1	1830		730		1600		
CC(C)CC(=O)Nc1ccc2c(c1)CCc1cnc(Nc3ccc(S(N)(=O)=O)cc3)nc1-2	1940		380		6400		
NS(=O)(=O)c1ccc(Nc2nccc(-c3ccc(NC(=O)Cc4ccccc4)cc3)n2)cc1	50	< 0.01	180	1 (≈ 2.18 µM)	4470		
NS(=O)(=O)c1ccc(Nc2ncc3c(n2)-c2ccccc2CC3)cc1	1830	2.92	1050	7 (≈ 19.9 µM)	1430		
NS(=O)(=O)c1ccc(Nc2ncc3c(n2)-c2ccccc2CCC3)cc1			4180		4060		
NS(=O)(=O)c1ccc(Nc2ncc3c(n2)-c2ccc(NC(=O)Cc4cccs4)cc2CC3)cc1	510	0.51	290	6 (≈ 12.2 µM)	830		
NS(=O)(=O)c1ccc(Nc2ncc3c(n2)-c2ccc(NC(=O)Cc4ccsc4)cc2CC3)cc1	310		490		970		
NS(=O)(=O)c1ccc(Nc2nccc(-c3ccccc3)n2)cc1	20200	2.26	3280	1 (≈ 3.06 µM)			
NS(=O)(=O)c1ccc(Nc2nccc(-c3ccsc3)n2)cc1	180		2620		1700		
NS(=O)(=O)c1ccc(Nc2ncc3c(n2)-c2ccc(NC(=O)Cc4ccccc4)cc2CC3)cc1	2380	3.37	190	9 (≈ 18.5 µM)	1790		
NS(=O)(=O)c1ccc(Nc2nccc(-c3ccc(NC(=O)Cc4cccs4)cc3)n2)cc1	20	0.3	250	< 1	6910		
CN(C)CCCNS(=O)(=O)c1ccc(Nc2ncc3c(n2)-c2ccsc2CC3)cc1	780		1100		620		
O=S(=O)(NCCO)c1ccc(Nc2nccc(-c3ccsc3)n2)cc1	130		4110		3390		
O=S(=O)(NCCO)c1ccc(Nc2ncc3c(n2)-c2ccsc2CC3)cc1	1220		800		1960		
NS(=O)(=O)c1ccc(Nc2ncc3c(n2)-c2ccsc2CC3)cc1	790	0.38	330	< 1	800	34	20.7
CN(C)CCCNS(=O)(=O)c1ccc(Nc2nccc(-c3ccsc3)n2)cc1	170		3380		1060		
CN(C)CCNS(=O)(=O)c1ccc(Nc2nccc(-c3ccsc3)n2)cc1	230	2.4	2810	> 100	770	< 1	13.2
CN(C)CCNS(=O)(=O)c1ccc(Nc2ncc3c(n2)-c2ccsc2CC3)cc1	770	1.54	680	36 (≈ 83.8 µM)	510	< 1	3.08
CC(C)(C)CC(=O)Nc1ccc2c(c1)CCc1cnc(Nc3ccc(S(N)(=O)=O)cc3)nc1-2	820	2.3	370	9 (≈ 19.3 µM)	1360		
NS(=O)(=O)c1ccc(Nc2ncc3c(n2)-c2ccc(NC(=O)c4ccco4)cc2CC3)cc1	2230		1060				
Cc1ccc(-c2ccnc(Nc3ccc(S(N)(=O)=O)cc3)n2)s1	19		1660	3 (≈ 8.66 µM)	1710		
